Test results published in patent US20260241048A1, “PSMA-TARGETED RADIOPHARMACEUTICALS AND DNA DAMAGE RESPONSE INHIBITOR COMBINATION THERAPY” (FUSION PHARMACEUTICALS INC., priority 2023, published 2026).

Assays:
PC3-PSMA xenograft [1] = assay: In vivo combination study of ^225Ac-Compound I and olaparib in PC3-PSMA tumor xenograft bearing mouse model
Method: An in vivo combination study was conducted with ^225Ac-Compound I and olaparib using a PSMA overexpressing PC3 (PC3-PSMA, prostate cancer) tumor xenograft bearing mouse model. Groups of mice (n=5/group) were treated with ^225Ac-Compound I administered as a single dose (intravenous), at a dose sub-optimal for monotherapeutic efficacy (1.23 MBq/kg or 1 μCi, based on 30 g mice). Additional groups of mice (n=5/group) were dosed daily with olaparib (oral gavage) using a dose range of 25, 50, or 100 mg/kg for 28 consecutive days in combination with ^225Ac-Compound I. Olaparib dosing started on the same day that ^225Ac-Compound I was dosed (FIG. 1). Olaparib monotherapy and vehicle control groups (n=5/group) were included as controls. Tumor measurements were taken 2-3 times per week and used to calculate tumor volume. Study duration was for 50 days after initial therapeutic administration.
Tumor growth in study animals was tracked over time and expressed as Relative Tumor Volume (RTV; tumor volume on day X divided by initial tumor volume on day 0) (FIGS. 2A-2C). Single agent olaparib monotherapy was found ineffective at all dose levels tested.

PC3-PSMA xenograft [2] = assay: In vivo combination study of ^225Ac-Compound I and elimusertib in PC3-PSMA tumor xenograft bearing mouse model; conditions: 1.23 MBq/kg [^225Ac]-Compound I single i.v. dose combined with elimusertib 5, 20 and 40 mg/kg; compared to either monotherapy or vehicle
Method: Groups of mice (n=5/group) were treated with ^225Ac-Compound I, administered as a single dose (intravenous), at a dose sub-optimal for monotherapeutic efficacy (1.23 MBq/kg or 1 μCi, based on 30 g mice). […] Tumor measurements were taken 2-3 times per week and used to calculate tumor volume. Study duration was 61 days after initial therapeutic administration.
Tumor growth was tracked over time and expressed as Relative Tumor Volume (RTV; tumor volume on day X divided by initial tumor volume on day 0) (FIGS. 4A-4C).

| SMILES | Tumor growth inhibition (Relative Tumor Volume) (PC3-PSMA xenograft [1]; 1.23 MBq/kg [^225Ac]-Compound I single i.v. dose combined with olaparib 25, 50 or 100 mg/kg daily, compared to either monotherapy or vehicle) | Tumor growth inhibition (Relative Tumor Volume) (PC3-PSMA xenograft [2]) | Tumor growth (Relative Tumor Volume) (PC3-PSMA xenograft [1]; single agent olaparib monotherapy, oral gavage daily for 28 days, all dose levels tested (25, 50, 100 mg/kg)) |
| --- | --- | --- | --- |
| O=C(O)CC[C@H](NC(=O)N[C@@H](CCCCNC(=O)CCCCCCC(=O)NCCCC[C@@H](NC(=O)[C@@H](Cc1ccccc1)NC(=O)[C@@H](Cc1ccc(O)c(I)c1)NC(=O)CCC(C(=O)O)N1CCN(CC(=O)O)CCN(CC(=O)O)CCN(CC(=O)O)CC1)C(=O)O)C(=O)O)C(=O)O (stereo partly drawn) [[^225Ac]-Compound I, metal not drawn] | enhanced tumor growth inhibition | enhanced tumor growth inhibition |  |
| O=C(c1cc(Cc2n[nH]c(=O)c3ccccc23)ccc1F)N1CCN(C(=O)C2CC2)CC1 [olaparib, reference compound] |  |  | ineffective |
